This data set has as its system CCRIS mutagenicity, Ames/micronucleus/aberration tests. As to the kind of experiment: CCRIS mutagenicity studies.
Setting [1] is: Test System: AMES SALMONELLA TYPHIMURIUM, Strain/Indicator: TA100, Metabolic Activation: NONE, Method: PREINCUBATION
Setting [2] is: Test System: AMES SALMONELLA TYPHIMURIUM, Strain/Indicator: TA1535, Metabolic Activation: NONE, Method: STANDARD PLATE.
[3] abbreviates: Test System: AMES SALMONELLA TYPHIMURIUM, Strain/Indicator: TA1535, Metabolic Activation: RAT, LIVER, S-9, AROCLOR 1254, Method: STANDARD PLATE.
Setting [4] is: Test System: AMES SALMONELLA TYPHIMURIUM, Strain/Indicator: TA1537, Metabolic Activation: RAT, LIVER, S-9, AROCLOR 1254, Method: STANDARD PLATE.
The mark [5] stands for this setting: Test System: AMES SALMONELLA TYPHIMURIUM, Strain/Indicator: TA98, Metabolic Activation: NONE, Method: STANDARD PLATE.
Where [6] appears, read: Test System: AMES SALMONELLA TYPHIMURIUM, Strain/Indicator: TA100, Metabolic Activation: NONE, Method: STANDARD PLATE.

This note sets out measurements from PubChem BioAssay AID1259407 (Chemical Carcinogenesis Research Information System (CCRIS), 2018).

Activity calls are given as the source filed them. How the calls were made is not given here.

For the molecule `Cc1cc(O)c2c(c1)C(=O)c1cc(O)cc(O)c1C2=O`, the mutagenic call was “inactive; negative” (Test System: AMES SALMONELLA TYPHIMURIUM, Strain/Indicator: TA97, Metabolic Activation: NONE, Method: STANDARD PLATE); “active; positive” (Test System: AMES SALMONELLA TYPHIMURIUM, Strain/Indicator: TA97, Metabolic Activation: RAT, LIVER, S-9, AROCLOR 1254, Method: STANDARD PLATE); “inactive; negative” (Test System: AMES SALMONELLA TYPHIMURIUM, Strain/Indicator: TA97A, Metabolic Activation: NONE, Method: STANDARD PLATE); “active; positive” (Test System: AMES SALMONELLA TYPHIMURIUM, Strain/Indicator: TA97A, Metabolic Activation: RAT, LIVER, S-9, AROCLOR 1254, Method: STANDARD PLATE); “inactive; negative” (Test System: AMES SALMONELLA TYPHIMURIUM, Strain/Indicator: TA98, Metabolic Activation: HAMSTER, LIVER, S-9, AROCLOR 1254 (30%), Method: PREINCUBATION); “inactive; negative” (Test System: AMES SALMONELLA TYPHIMURIUM, Strain/Indicator: TA98, Metabolic Activation: NONE, Method: PREINCUBATION). The mutagenic call is “inactive; negative” (Test System: AMES SALMONELLA TYPHIMURIUM, Strain/Indicator: TA98, Metabolic Activation: RAT LIVER S-9, AROCLOR 1254 (30%), Method: PREINCUBATION); “active; positive” (Test System: AMES SALMONELLA TYPHIMURIUM, Strain/Indicator: TA100, Metabolic Activation: HAMSTER LIVER S-9, AROCLOR 1254 (10% OR 30%), Method: PREINCUBATION); “inactive; negative” under setting [1]; “active; positive” (Test System: AMES SALMONELLA TYPHIMURIUM, Strain/Indicator: TA100, Metabolic Activation: RAT LIVER S-9, AROCLOR 1254 (5% OR 30%), Method: PREINCUBATION); “inactive; negative” (Test System: AMES SALMONELLA TYPHIMURIUM, Strain/Indicator: TA102, Metabolic Activation: NONE, Method: STANDARD PLATE); “active; positive” (Test System: AMES SALMONELLA TYPHIMURIUM, Strain/Indicator: TA102, Metabolic Activation: S-9, Method: STANDARD PLATE). The mutagenic call under setting [2] was “inactive; negative”; the mutagenic call under setting [3] was “inactive; negative”; the mutagenic call under setting [4] was “active; positive”; the mutagenic call (Test System: AMES SALMONELLA TYPHIMURIUM, Strain/Indicator: TA1537, Metabolic Activation: RAT, LIVER, S-9, PCB, Method: STANDARD PLATE) was “active; positive”; the mutagenic call (Test System: AMES SALMONELLA TYPHIMURIUM, Strain/Indicator: TA1537, Metabolic Activation: RAT, LIVER, S-9, Method: PREINCUBATION) was “active; positive”; the mutagenic call (Test System: AMES SALMONELLA TYPHIMURIUM, Strain/Indicator: TA1538, Metabolic Activation: NONE, Method: STANDARD PLATE) was “inactive; negative”. Further, the mutagenic call (Test System: AMES SALMONELLA TYPHIMURIUM, Strain/Indicator: TA1538, Metabolic Activation: RAT, LIVER, S-9, AROCLOR 1254, Method: STANDARD PLATE) is “inactive; negative”; the mutagenic call (Test System: AMES SALMONELLA TYPHIMURIUM, Strain/Indicator: TA2638, Metabolic Activation: S-9, Method: STANDARD PLATE) is “active; positive”; the mutagenic call (Test System: CHINESE HAMSTER V-79, Strain/Indicator: V-79 (HGPRT)/6-THIOGUANINE, Metabolic Activation: NONE, Method: SUSPENSION/PLATE) is “inactive; negative”; the mutagenic call (Test System: CHINESE HAMSTER V-79, Strain/Indicator: V-79 (HGPRT)/6-THIOGUANINE, Metabolic Activation: RAT, LIVER, S-9, AROCLOR 1254, Method: SUSPENSION/PLATE) was “inactive; negative”; the mutagenic call (Test System: CHINESE HAMSTER V-79, Strain/Indicator: V-79/8-AZAGUANINE, Metabolic Activation: NONE, Method: STANDARD PLATE) was “active; positive”; the mutagenic call (Test System: E. COLI, Strain/Indicator: WP2 (PKM101), Metabolic Activation: S-9, Method: STANDARD PLATE) is “inactive; negative”. The mutagenic call (Test System: E. COLI, Strain/Indicator: WP2 UVRA (PKM101), Metabolic Activation: S-9, Method: STANDARD PLATE) is “inactive; negative” and the mutagenic call (Test System: UDS RODENT HEPATOCYTES, Strain/Indicator: THY INCORP (NON-S-PHASE), Metabolic Activation: NONE, Method: AUTORADIOGRAPHY) is “active; positive”.
For the molecule `C(=Nc1ccccc1)c1cccc2cccnc12`, the mutagenic call was “inactive; negative” under setting [5]; “inactive; negative” (Test System: AMES SALMONELLA TYPHIMURIUM, Strain/Indicator: TA98, Metabolic Activation: RAT, LIVER, S-9, AROCLOR 1254, Method: STANDARD PLATE); “inactive; negative” under setting [6]; “active; positive” (Test System: AMES SALMONELLA TYPHIMURIUM, Strain/Indicator: TA100, Metabolic Activation: RAT, LIVER, S-9, AROCLOR 1254, Method: STANDARD PLATE); “inactive; negative” under setting [2]; “inactive; negative” under setting [3]. Besides, the mutagenic call by setting is: (Test System: AMES SALMONELLA TYPHIMURIUM, Strain/Indicator: TA1537, Metabolic Activation: NONE, Method: STANDARD PLATE) “inactive; negative”; under setting [4], “inactive; negative”.
Consider `N#Cc1ccc(/C=C\c2ccc([N+](=O)[O-])cc2)cc1`, for which the mutagenic call reads like this: (Test System: AMES SALMONELLA TYPHIMURIUM, Strain/Indicator: TA98 (NR), Metabolic Activation: NONE, Method: STANDARD PLATE) “active; positive”; (Test System: AMES SALMONELLA TYPHIMURIUM, Strain/Indicator: TA98 (NR), Metabolic Activation: S-9, Method: STANDARD PLATE) “active; positive”; under setting [5], “active; positive”; (Test System: AMES SALMONELLA TYPHIMURIUM, Strain/Indicator: TA98, Metabolic Activation: S-9, Method: STANDARD PLATE) “active; positive”; (Test System: AMES SALMONELLA TYPHIMURIUM, Strain/Indicator: TA100 (NR), Metabolic Activation: NONE, Method: STANDARD PLATE) “inactive; negative”; (Test System: AMES SALMONELLA TYPHIMURIUM, Strain/Indicator: TA100 (NR), Metabolic Activation: S-9, Method: STANDARD PLATE) “inactive; negative”. In addition, the mutagenic call runs as follows: under setting [6], “active; positive”; (Test System: AMES SALMONELLA TYPHIMURIUM, Strain/Indicator: TA100, Metabolic Activation: S-9, Method: STANDARD PLATE) “active; positive”.
Consider `c1ccc2c(c1)cc1c3c2ccc2cccc(c23)C2NC12` (centres undefined), for which the mutagenic call was “active; positive” under setting [5]; “active; positive” (Test System: AMES SALMONELLA TYPHIMURIUM, Strain/Indicator: TA100, Metabolic Activation: MICROSOMAL EPOXIDE HYDROLASE, Method: PREINCUBATION); “active; positive” under setting [1]; “active; positive” under setting [6]; “active; positive” (Test System: CHINESE HAMSTER V-79, Strain/Indicator: V-79/6-THIOGUANINE, Metabolic Activation: NONE, Method: REPLATING); “active; positive” (Test System: CHINESE HAMSTER V-79, Strain/Indicator: V-79/6-THIOGUANINE, Metabolic Activation: NONE, Method: STANDARD PLATE). The mutagenic call (Test System: E. COLI, Strain/Indicator: WP2UVRA, Metabolic Activation: NONE, Method: STANDARD PLATE) is “active; positive”.
